Target: Vasopressin V1a receptor (Homo sapiens, UniProt P37288)
Experiment: Vasopressin V1A Receptor Antagonist Assay: The purpose of this assay was to determine the inhibitory effect of synthesized compounds on the Vasopressin V1a receptor. The assay as performed in Chinese Hamster Ovary (CHO) cells expressing the human Arginine Vasopressin Receptor 1a (AVPR1a). Arginine Vasopressin (AVP) evokes an increase in intracellular calcium in CHO-AVPR1a cells which is measured in a fluorescence assay on the […] using calcium sensitive dyes. Test compounds were assessed for their ability to affect the magnitude of the response to AVP, with antagonists showing a concentration-dependent reduction in the AVP-mediated fluorescence. Compounds were tested in duplicate in a 10-point, 1:3 dilution series starting at a nominal concentration of 3 μM in the assay.CHO-AVPR1a cells were maintained in routine culture in T175 Flasks at 37° C., 5% CO2. The growth medium consists of Ham's F12 media supplemented with 10% v/v fetal bovine serum, 1× non-essential amino acids, and 0.4 mg/ml Geneticin G418.
Type: cell-based

Vasopressin V1a receptor, sequence (P37288 whole entry): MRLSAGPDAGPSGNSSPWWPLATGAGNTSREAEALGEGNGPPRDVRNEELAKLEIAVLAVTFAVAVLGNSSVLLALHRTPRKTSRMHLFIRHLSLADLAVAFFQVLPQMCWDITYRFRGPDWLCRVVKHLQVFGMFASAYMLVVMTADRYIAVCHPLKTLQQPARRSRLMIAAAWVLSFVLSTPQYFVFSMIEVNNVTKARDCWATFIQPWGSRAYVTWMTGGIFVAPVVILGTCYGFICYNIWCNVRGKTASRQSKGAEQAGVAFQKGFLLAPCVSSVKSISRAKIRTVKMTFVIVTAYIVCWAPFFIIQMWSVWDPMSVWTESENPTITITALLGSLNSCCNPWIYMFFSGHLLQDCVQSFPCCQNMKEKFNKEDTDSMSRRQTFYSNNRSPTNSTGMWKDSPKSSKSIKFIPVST

Structure (SMILES)	IC50
CN(C)C(=O)N1Cc2cc(Cl)ccc2-n2c(nnc2C2CC3(C2)CN(c2ccc(F)cn2)C3)C1	< 100 nM
O=C(C1CC1)N1CC2(CC(c3nnc4n3-c3ccc(Cl)cc3CN(C3CC3)C4)C2)C1	< 100 nM

Reference: ChEMBL document CHEMBL5728840, “Vasopressin receptor antagonists and products and methods related thereto” (2021)
